Tests used:
[1] = tested on: sexual behaviour of sexually dysfunctional male rats; experiment: Sexual behaviour of fluoxetine-induced sexually dysfunctional male rats; assay type: in vivo, rat; conditions: fluoxetine-pretreated rats, Compound (1) 15 mg/kg or yohimbine 2 mg/kg i.p. 1 h before test
Protocol: Sprague Dawley male rats (Charles River, UK) were kept, 4 rats per cage, in a reversed lighting regime (12:12 hours, lights off at 5.00 h), with free access to food and water. The rats were pre-selected by being presented with a receptive female at 4 days intervals, i.e. every third day (having 2 clear days between presentations) until completing 6-7 trials of baseline determination. The animals showing consistently vigorous behaviour (ejaculatory latencies <300s) were chosen for further experiments. Animals were treated for 3 consecutive days with either vehicle (water) or fluoxetine (20 mg/kg, i.p., in a 2 ml/kg dosing volume). On the fourth day, the animals treated with water received vehicle (veh+veh) and the animals treated with fluoxetine received one of the three following treatments: Compound (1) (15 mg/kg, dissolved in 50% 2-hydroxypropyl-β-cyclodextrin in saline), vehicle (cyclodextrine), or yohimbine (2 mg/kg dissolved in water). All treatments were administered i.p. in a 1 ml/kg volume, 1 h before tests.
(§1) For all the sexual behaviour tests, the males were placed in an observation arena (50-60 cm diameter), starting 5 hours into the dark cycle and observed under red illumination. Three to 4 minutes after placing the male in the arena, a receptive female (ovariectomised, bearing a 7 mm Silastic implant of oestradiol benzoate) was introduced to the arena and the following parameters noted: Mount Latency: time (in seconds) taken between introduction of female and first mount. A maximum time of 15 minutes (900 seconds) was allowed, and the test terminated if no mounts were recorded within that time (FIG. 16), Ejaculation Latency: time (in seconds) taken from first intromission to ejaculation. A maximum time of 30 minutes (1800 seconds) was given, and the test terminated if ejaculation was not achieved in that time (FIG. 17), Percentage of males achieving ejaculation within 30 minutes was calculated (FIG. 18).
A one-way ANOVA followed by Dunnett's t test was used to compare the fluoxetine+vehicle group and other groups for mount and ejaculatory latencies. Percentage of animals ejaculating was analysed using a Chi-square test followed by Fisher's test. (*: P<0.05, **: P<0.01, ***: P<0.001; n=15-19).

[2] = tested on: sexual behaviour of normal male rats; experiment: Sexual behaviour of normal (sexually vigorous) male rats; assay type: in vivo, rat; conditions: Compound (1) 15 mg/kg or Fluoxetine 20 mg/kg i.p. 1 h before test
Protocol: The potentially stimulatory effect of Compound (1) on male sexual behaviour has been tested on sexually vigorous rats. Sprague Dawley male rats (Charles River, UK) were kept, 4 rats per cage, in a reversed lighting regime (12:12 hours, lights off at 5.00 h), with free access to food and water. The rats were pre-selected by being presented with a receptive female at 4 days intervals, i.e. every third day (having 2 clear days between presentations) until completing 6-7 […] of baseline determination. The animals showing consistently vigorous behaviour (ejaculatory latencies <300s) were chosen for further experiments (n—24). Animals were randomised into three groups. All animals received all three treatments following a latin-square design. Treatments were administered once a week, with a baseline test in between treatments (4 days intervals between baseline and test day). Treatments were Compound (1) (15 mg/kg, dissolved in 50% 2-hydroxypropyl-β-cyclodextrin in saline), vehicle, or Fluoxetine (20 mg/kg dissolved in 100% DMSO). All treatments were administered i.p. in a 1 ml/kg volume, 1 h before tests.
as §1, with “11), Intromission Latency: time (in seconds) taken between introduction of female and first intromission (FIG. 12), Number of Mounts: to reach ejaculation. When ejaculation was not reached, the number of mounts was not analyzed, Number of Intromissions: to reach ejaculation. When ejaculation was not reached, the number of intromissions was not analyzed (FIG. 13 is number of mounts+intromissions),” for “16),”, “14), and Refractory Period: time (in seconds) taken from ejaculation to the first mount” for “17), Percentage”, “the next series of sexual activity. In those animals reaching” for “males achieving”, “the test” for “within 30 minutes”, “terminated at the end of the refractory period, as indicated by the first mount of the next sexual cycle” for “calculated”, “15).” for “18).”
A one-way ANOVA followed by Dunnett's t test was used to compare treated vs vehicle groups each day of testing, for all the sexual behaviour parameters. (*P<0.05, **P<0.01; n=15-16).

[3] = tested on: female rat sexual proceptivity (NMB-inhibited); experiment: Inhibition of female rat proceptivity by i.c.v. NMB and its antagonism; assay type: in vivo; conditions: progesterone 0.5 mg s.c. 4 h; NMB 100 ng i.c.v. 10 min before test in progesterone-treated rats; Compound (1) 15 mg/kg i.p. 1 h before NMB (FIG. 5)
Protocol: Ovariectomised female rats (Sprague Dawley, obtained from Charles River, UK) were stereotaxically implanted (coordinates 0.89 mm behind Bregma, 1.3 mm lateral and 2.5 mm vertical) with stainless steel cannulae (6 mm long, O.D. 0.75 mm), held in place with dental cement. Animals were housed in groups of three and returned to a reversed lighting system of 12 h light:dark (lights off 5.00-17.00 h). Correct placement of the cannulae was assessed post-mortem. Rats were used for tests two weeks after ovariectomy (one week after cannulation). The experiments started at least 5 h into the dark period. Forty eight hours before tests, the animals were primed with 5 μg oestradiol benzoate (OB) (s.c, in corn oil) and adapted to the apparatus (in the absence of stimuli animals) for 10 min on 2 consecutive days prior testing. The 10 min test was carried out as previously described. The difference in the percentage of time spent investigating male minus female was calculated, out of the total time spent investigating stimuli.
Progesterone (Prog, 0.5 mg/0.1 ml) was dissolved in corn oil and administered subcutaneously (s.c.), 4 h before test, to induce proceptive behaviour. Compound (1) (15 mg/kg, i.p.) was dissolved in 50% 2-hydroxypropyl-β-cyclodextrin in saline and administered 1 h before the i.c.v. administration. Neuromedin B was obtained from Bachem, UK. It was dissolved in isotonic saline and administered i.c.v. over a 30 sec period, with the aid of a pump set to deliver a flow of 10 μl/min, 10 min before tests. The dosing volume was 5 μl/rat. Each rat received a total amount of 100 ng.

COc1ccc(C2(CNC(=O)[C@](C)(Cc3c[nH]c4ccccc34)NC(=O)Nc3ccc([N+](=O)[O-])cc3)CCCCC2)nc1 [Compound (1), (S) 3-(1H-Indol-3-yl)-N-[1-(5-methoxy-pyridin-2-yl)-cyclohexyl-methyl]-2-methyl-2-[3-(4-nitro-phenyl)-ureido]-propionamide]
Mount Latency ([1]; vs fluoxetine+vehicle (FIG. 16)): significantly decreased
Ejaculation Latency ([1]; vs fluoxetine+vehicle (FIG. 17)): significantly decreased
percentage of animals ejaculating ([1]; vs fluoxetine+vehicle (FIG. 18)): increasing the percentage of animals ejaculating
Mount Latency ([2]; vs vehicle (FIG. 11)): no effect on any of the parameters studied
Intromission Latency ([2]; vs vehicle (FIG. 12)): no effect on any of the parameters studied
number of mounts and intromissions required to achieve ejaculation ([2]; vs vehicle (FIG. 13)): no effect on any of the parameters studied
Ejaculation Latency ([2]; vs vehicle (FIG. 14)): no effect on any of the parameters studied
Refractory Period ([2]; vs vehicle (FIG. 15)): no effect on any of the parameters studied
proceptivity (percentage of time investigating male minus female stimulus) [3]: prevented the inhibitory effect of NMB

— US20020169101A1, “Treatment of sexual dysfunction” (priority 1999, published 2002)
